In patent US6274715A, “Tricyclic erythromycin derivatives” (priority 1997, dated 2001):
Values after ≈ are worked out from the molar mass of the structure shown. Read-outs that look alike come from different tables or passages of the source.

Legend:
Format in all cases: cell-based
[1] = system: STAPHYLOCOCCUS AUREUS ATCC 6538P; assay: In vitro antibacterial activity, MIC, BHI agar dilution; settings: S. aureus ATCC 6538P, 35-37° C., 20 to 24 hours, listed as Ex 35, unit assumed
[2] = system: STAPHYLOCOCCUS AUREUS A-5278; assay: as above; settings: S. aureus A-5278, unit assumed
[3] = system: STAPHYLOCOCCUS AUREUS CMX 642A; assay: as above; settings: S. aureus CMX 642A, unit assumed
[4] = system: STAPHYLOCOCCUS AUREUS NCTC10649M; assay: as above; settings: S. aureus NCTC10649M, unit assumed
[5] = system: STAPHYLOCOCCUS AUREUS 1775; assay: as above; settings: S. aureus 1775, unit assumed
[6] = system: STAPHYLOCOCCUS EPIDERMIDIS 3519; settings: S. epidermidis 3519, BHI agar, unit assumed
EN[…] ATCC 8043 = assay: In vitro antibacterial activity, MIC, BHI agar dilution; settings: E. faecium ATCC 8043, unit assumed
Procedure: (§1) Representative compounds of the present invention were assayed in vitro for antibacterial activity as follows: Twelve petri dishes containing successive aqueous dilutions of the test compound mixed with 10 mL of sterilized Brain Heart Infusion (BHI) agar (Difco 0418-01-5) were prepared. Each plate was inoculated with 1:100 (or 1:10 for slow-growing strains, such as Micrococcus and Streptococcus) dilutions of up to 32 different microorganisms, using a Steers replicator block. The inoculated plates were incubated at 35-37° C. for 20 to 24 hours. In addition, a control plate, using BHI agar containing no test compound, was prepared and incubated at the beginning and end of each test.
(§2) An additional plate containing a compound having known susceptibility patterns for the organisms being tested and belonging to the same antibiotic class as the test compound was also prepared and incubated as a further control, as well as to provide test-to-test comparability. Erythromycin A was used for this purpose.
(§3) After incubation, each plate was visually inspected. The minimum inhibitory concentration (MIC) was defmed as the lowest concentration of drug yielding no growth, a slight haze, or sparsely isolated colonies on the inoculum spot as compared to the growth control.

M[…] ATCC 9341 = assay: as above; settings: M. luteus ATCC 9341, unit assumed
Procedure: as §1, §2, §3

STR[…] 508 = assay: as above; settings: S. agalactiae CMX 508, unit assumed
Procedure: as §1, §2, §3

[7] = system: STREPTOCOCCUS BOVIS A-5169; assay: as above; settings: S. bovis A-5169, unit assumed
[8] = system: STREPTOCOCCUS PYOGENES 930; assay: as above; settings: S. pyogenes 930, unit assumed
[9] = system: STREPTOCOCCUS PYOGENES PIU 2548; assay: as above
ESCHERICHIA COLI JUHL = settings: E. coli JUHL, BHI agar, unit assumed
ESCHERICHIA COLI H560 = assay: In vitro antibacterial activity, MIC, BHI agar dilution
ESCHERICHIA COLI KNK 437 = settings: E. coli KNK 437; BHI agar; unit assumed
[10] = system: ENTEROBACTER AEROGENES ATCC 13048; assay: In vitro antibacterial activity, MIC, BHI agar dilution
[11] = system: KLEBSIELLA PNEUMONIAE ATCC 8045; assay: as above; settings: K. pneumoniae ATCC 8045, unit assumed
[12] = system: PROVIDENCIA STUARTII CMX 640; settings: P. stuartii CMX 640; BHI agar; unit assumed
[13] = system: PSEUDOMONAS AERUGINOSA BMH10; assay: In vitro antibacterial activity, MIC, BHI agar dilution
[14] = system: PSEUDOMONAS AERUGINOSA 5007; assay: as above; settings: P. aeruginosa 5007, unit assumed
[15] = system: PSEUDOMONAS AERUGINOSA K799/WT; assay: as above; settings: P. aeruginosa K799/WT
[16] = system: PSEUDOMONAS AERUGINOSA K799/61; assay: as above
PSEUDOMONAS CEPACIA 296I = assay: as above; settings: P. cepacia 296I, unit assumed
[17] = system: PSEUDOMONAS AERUGINOSA DPHD-5263; assay: as above; settings: P. aeruginosa DPHD-5263, unit assumed
[18] = system: PSEUDOMONAS AERUGINOSA DPHD-2862; assay: as above; settings: P. aeruginosa DPHD-2862, unit assumed
CANDIDA ALBICANS CCH 442 = assay: as above; settings: C. albicans CCH 442, unit assumed
[19] = system: MYCOBACTERIUM SMEGMATIS ATCC 114; assay: as above; settings: M. smegmatis ATCC 114, unit assumed
[20] = system: STAPHYLOCOCCUS AUREUS CMX 553; assay: as above; settings: S. aureus CMX 553, unit assumed
M[…] ATCC 4698 = assay: as above; settings: M. luteus ATCC 4698, unit assumed
Procedure: as §1, §2, §3

[21] = system: STREPTOCOCCUS PYOGENES EES61; assay: as above; settings: S. pyogenes EES61, unit assumed
ESCHERICHIA COLI SS = assay: as above; settings: E. coli SS, unit assumed
ESCHERICHIA COLI DC-2 = assay: as above; settings: E. coli DC-2, unit assumed

| Structure (SMILES) | MIC [2] [µg/mL] | MIC [3] [µg/mL] | MIC [4] [µg/mL] | MIC [5] [µg/mL] | MIC (EN[…] ATCC 8043) [µg/mL] | MIC (M[…] ATCC 9341) [µg/mL] | MIC (STR[…] 508) [µg/mL] | MIC [7] [µg/mL] | MIC [8] [µg/mL] | MIC (ESCHERICHIA COLI KNK 437) [µg/mL] | MIC [12] [µg/mL] | MIC [14] [µg/mL] | MIC (PSEUDOMONAS CEPACIA 296I) [µg/mL] | MIC [17] [µg/mL] | MIC [18] [µg/mL] | MIC (CANDIDA ALBICANS CCH 442) [µg/mL] | MIC [19] [µg/mL] | further results |
| --- | --- | --- | --- | --- | --- | --- | --- | --- | --- | --- | --- | --- | --- | --- | --- | --- | --- | --- |
| CCC1OC(=O)C(C)C(=O)C(C)C(OC2OC(C)CC(N(C)C)C2O)C(C)(OC)CC(C)C2=NCC(CCc3ccccc3)N3C(=O)OC1(C)C3C2C (stereo not drawn) [Example 35] | > 100 | 0.78 (≈ 1.05 µM) | 0.78 (≈ 1.05 µM) | > 100 | 0.2 (≈ 0.27 µM) | 0.2 (≈ 0.27 µM) | 0.02 (≈ 0.027 µM) | 0.01 (≈ 0.0135 µM) | 50 (≈ 67.4 µM) | 100 (≈ 135 µM) | > 100 | > 100 | 100 (≈ 135 µM) | > 100 | > 100 | > 100 | 0.39 (≈ 0.526 µM) | MIC [1]: 0.39 µg/mL (≈ 0.526 µM); MIC ([6]; listed as Ex 35): 0.39 µg/mL (≈ 0.526 µM); MIC ([9]; S. pyogenes PIU 2548, listed as Ex 35, unit assumed): 0.39 µg/mL (≈ 0.526 µM); MIC (ESCHERICHIA COLI JUHL; listed as Ex 35): > 100 µg/mL; MIC (ESCHERICHIA COLI H560; E. coli H560, listed as Ex 35, unit assumed): 50 µg/mL (≈ 67.4 µM); MIC ([10]; E. aerogenes ATCC 13048, listed as Ex 35, unit assumed): 100 µg/mL (≈ 135 µM); MIC [11]: > 100 µg/mL; MIC ([13]; P. aeruginosa BMH10, listed as Ex 35, unit assumed): > 100 µg/mL; MIC ([15]; listed as Ex 35, unit assumed): > 100 µg/mL; MIC ([16]; P. aeruginosa K799/61, listed as Ex 35, unit assumed): 3.1 µg/mL (≈ 4.18 µM) |
| CC[C@H]1OC(=O)[C@H](C)C(=O)[C@H](C)[C@@H](O[C@@H]2O[C@H](C)C[C@H](N(C)C)[C@H]2O)[C@](C)(OC)C[C@@H](C)C2=NC3CN(CC)CC3N3C(=O)O[C@@]1(C)[C@H]3[C@H]2C (stereo partly drawn) [Example 115] | > 100 | 1.56 (≈ 2.21 µM) | 0.78 (≈ 1.1 µM) | > 100 | 0.1 (≈ 0.141 µM) | 0.1 (≈ 0.141 µM) | 0.05 (≈ 0.0707 µM) | ≤ 0.005 | > 100 | 25 (≈ 35.4 µM) | > 100 | > 100 | > 100 | > 100 | > 100 | > 100 | 12.5 (≈ 17.7 µM) | MIC [20]: 1.56 µg/mL (≈ 2.21 µM); MIC [6]: 1.56 µg/mL (≈ 2.21 µM); MIC (M[…] ATCC 4698): 0.39 µg/mL (≈ 0.552 µM); MIC [21]: 0.05 µg/mL (≈ 0.0707 µM); MIC ([9]; S. pyogenes PIU 2548, unit assumed): 0.78 µg/mL (≈ 1.1 µM); MIC (ESCHERICHIA COLI JUHL): > 100 µg/mL; MIC (ESCHERICHIA COLI SS): 0.39 µg/mL (≈ 0.552 µM); MIC (ESCHERICHIA COLI DC-2): 50 µg/mL (≈ 70.7 µM); MIC (ESCHERICHIA COLI H560; E. coli H560, unit assumed): 12.5 µg/mL (≈ 17.7 µM); MIC ([10]; E. aerogenes ATCC 13048, unit assumed): 50 µg/mL (≈ 70.7 µM); MIC ([13]; P. aeruginosa BMH10, unit assumed): > 100 µg/mL; MIC ([15]; unit assumed): > 100 µg/mL; MIC ([16]; P. aeruginosa K799/61, unit assumed): 0.78 µg/mL (≈ 1.1 µM) |
